Values after ≈ are worked out from the molar mass of the structure shown. Read-outs that look alike come from different tables or passages of the source. One block for each compound: values may come before it.
Legend:
calf thymus DNA = test: DNA binding by visible absorption and CD spectra of DNA (P)-drug complex; conditions: mole ratio DNA (P)/analogue = 10:1; 3b, 4b and 5b compared; 1.0×10^-5 M, pH 7
Source text: In FIG. 1, absorption (top) and circular dichroism (bottom) spectra in 0.01 M phosphate buffer (pH7) containing EDTA (10^-5 M) and Me2 SO (5%): 3b (...), 4b (---), 5b (--). Concentration of drug in each case was 1.0×10^-5 M. In this respect, they are almost indistinguishable from the known analogue 7-methoxyactinomycin D (5b), whose structure and physical properties we have previously reported. The absorption spectra of all these analogues in aqueous buffer are also almost superimposable. […] The absorption spectrum of the analogues above 240 nm is mainly due to the electronic configuration of the tricyclic chromophore. The CD spectrum in the same wavelength region is an indicator of peptide conformation in actinomycin analogues, because it is the peptide lactone ring that confers optical activity on the nearly planar chromophore. The nature of the CD spectra (3b, 4b and 5b) asserts that in these analogues there is an identical relationship between the chromophores and peptide lactones. This relationship is very important, because during binding to DNA, AMD and some analogues are known to rely on the cooperative role between the chromophore and the peptide lactones for their highly specific DNA-binding property.
Any change in the configurations of the peptide lactones on binding to DNA is generally expressed in the CD spectra of the analogue-DNA complexes. […] The changes in the visible absorption spectra of 3b, 4b and 5b and also their CD spectra observed after adding calf thymus DNA [mole ratio of DNA (P)/analogue=10:1] are identical (FIG. 2). In FIG. 2, the absorption (top) and CD spectra of the DNA (P)-drug complex (ratio 10:1). Concentrations, buffer and line types are as in FIG. 1.

DNA [1] = conditions: known analogues; cited from earlier work
DNA [2] = test: DNA-binding mode, covalent and noncovalent (statements)
DNA [3] = test: Thermal denaturation of DNA (ΔTm), stabilization of DNA helical structure on drug binding; parameters: species or system calf thymus; conditions: for Tm (ΔTm = Tm of DNA-drug complex minus Tm of DNA): drug 1.4 × 10^-4 M, DNA (P) 1.4 × 10^-3 M, 0.01 M phosphate buffer pH 7.0, EDTA, 5% dimethyl sulfoxide
Procedure: Thermal denaturation studies were carried out according to the procedure described in J. Med. Chem., Vol. 24, p. 1052 (1981). The ΔTm values in Table II give a measure of stabilization of DNA helical structure as a consequence of drug binding.
^a ΔTm = m of DNAdrug complex minus m of DNA.
Concentraiton of drug, 1.4 × 10^-4 M; of DNA (P), 1.4 ×
10^-3 M in 0.01 M phosphate buffer (pH 7.0), 5 × 10^-3 M in
EDTA and 5% dimethyl sulfoxide.
^d Highest dose tested. These values are derived at high temperatur
(67°-75° C.) and may not always correlate with the results
of other DNA-binding studies (e.g., absorptiometric or circular dichroic).
Melting points were obtained with a Thomas-Hoover melting point apparatus at a heating rate of 2° C./min. Column chromatography was accomplished with silica gel powder (Baker No. 3405, 60-20 mesh) or acid alumina (Woelm grade 1). Limited gel-filtration work was done on Sephadex LH-20, particle size 25-100 μm (Pharmacia Fine Chemicals). Thin-layer chromatography was performed on silica gel plates (E. M. Laboratories, Inc.). Solvent systems used were (A) butanol-formic acid-H2 O (75:13:12), (B) EtOAc-acetone (3:1), and (C) Cifferri, the organic phase of the mixture EtOAc-MeOH-H2 O (20:1:20). High-performance liquid chromatography was carried out on a Varian Model 5020 gradient liquid chromatograph equipped with CD-111L chromatography data system and fitted with Varian reversed-phase C18 column with isocratic solvent systems, CH3 -CN-5 mM NH4 OAc buffer, pH 6.4 (68:32 or 62:38), pressure 80-140 atm, flow rate 1.5 mL/min, with UV-visible variable and fixed wavelength dual detectors at 254 and 466 nm. Spectra were determined on the following instruments: IR spectra were obtained with a Perkin-Elmer Model 237 Infra Cord with KBr micropellets or chloroform solutions; UV-visible spectra were obtained on a Gilford 250 spectrophotometer, which, with the addition of a base-line reference compensator (Analog Multiplexer 6064) and thermoprogrammer, auto four cell programmer and thermoelectric cell holder 2577, was used to obtain thermal denaturation curves; NMR spectra were obtained on a JOEL FQ-90-90MHZ spectrometer equipped with Fourier transform; and CD spectra were obtained on a Cary 61 spectrophotometer. All elemental analyses were within ±0.4% of the theoretical values. Actinomycin D, batch no. NCS 3053, lot L554651-0-10, was provided by Natural Products Branch, National Cancer Institute, Silver Spring, Md. Calf thymus DNA type 1 was purchased from Sigma Chemical Co.

[4] = system: human lymphoblastic leukemic cells (CCRF-CEM); test: In vitro growth-inhibitory activity against human lymphoblastic leukemic cells (CCRF-CEM) in log phase; type: cell-based; conditions: for IC50: Homo sapiens
Procedure: ^b Using human lymohoblastic leukemia cells in logplastic growth.
Compounds were dissolved in Me2 So medium, final growth medium

normal CDF1 male mice = test: Maximum tolerated dose (LD10) in normal, tumor-free CDF1 male mice; type: in vivo; conditions: for MTD (maximum tolerated dose, lethal for 10% of normal mice; = LD10): deaths during 21 days
Procedure: ^c MTD (maximum tolerated dose) is the lethal dose
(milligrams/kilogram) for 10% normal CDF1 male mice (18-23 g);
were calculated from a plot of log dose vs. percent mortality. Average of
two to three experiments.
Biological Experiments. Determination of LD10 Values. Tumor-free CDF1 male mice weighing 18-23 g were given a broad range of doses of drugs in 10% dimethyl sulfoxide-saline on either days 1, 5 and 9 or on 4 successive days. Drugs were administered intraperitoneally (ip).
The maximum tolerated doses of AMD and analogues that caused deaths in only 10% of the tested animals in 21 days were recorded as MTD. The results are an average of two experiments in each. The MTD values obtained following schedules q4d 1, 5, 9 (three injections) and qd 1-4 (four injections) are recorded in Table IV. These doses are the same as LD10 (lethal dose of 10% of tumor-free animals in 21 days).

P-388 leukemia = test: In vivo antitumor activity against P-388 lymphocytic leukemia in CDF1 mice; conditions: for % ILS (percent increase in life span) / MST (median survival time) / cure (over 55 day survivors): days 1, 5, 9; for minimal effective dose: Mus musculus, P388, ip, read-out: MED (minimum effective dose, 40% increase in life span over control)
Procedure: Studies on in vivo activity of AMD and AMD analogues were carried out with P-388 lymphocytic leukemia in CDF1 hybrid mice. The drugs were administered either daily for 4 successive days (qd 1-4) or on days 1, 5 and 9 (q4d 1, 5, 9) beginning 1 day after tumor implantation.
^a Male CDF1 (18-23 g) mice were inoculated intraperitoneally
(ip) with 10^6 P388 cells on day 0. Drugs were administered, also ip,
in 10% dimethyl sulfoxidesaline on days 1, 5 and 9. Test solutions were
kept at 0-4° C., protected from light, and the stability and
homogeneity were checked periodically by TLC and HPLC.
^b MST = median survival time.
^c % ILS = percent increase in life span.
^d Over 55 day survivors. Average of three experiments. The
^a Drugs administed ip once daily either for 4 successive days (qd
1-4) or on days 1, 5 and 9 (q4d 1, 5 9), starting 1 day after tumor
^b MED (minimum effective dose) is the dose (milligrams/kilogram)
providing an increase in life span of 40% over control in P388

[5] = three injections ip, q4d 1, 5, 9

Compound: COc1cc(C(=O)N[C@@H]2C(=O)N[C@H](C(C)C)C(=O)N3CCC[C@H]3C(=O)N(C)CC(=O)N(C)[C@@H](C(C)C)C(=O)O[C@@H]2C)c2nc3c(C(=O)N[C@@H]4C(=O)N[C@H](C(C)C)C(=O)N5CCC[C@H]5C(=O)N(C)CC(=O)N(C)[C@@H](C(C)C)C(=O)O[C@@H]4C)c(N)c(=O)c(C)c-3oc2c1C [Compound 5b, 7-methoxyactinomycin D, reference compound]
changes in visible absorption and CD spectra after adding calf thymus DNA (calf thymus DNA): identical

Compound: Cc1c2oc3c(C)c(N)cc(C(=O)N[C@@H]4C(=O)N[C@H](C(C)C)C(=O)N5CCC[C@H]5C(=O)N(C)CC(=O)N(C)[C@@H](C(C)C)C(=O)O[C@@H]4C)c3nc-2c(C(=O)N[C@@H]2C(=O)N[C@H](C(C)C)C(=O)N3CCC[C@H]3C(=O)N(C)CC(=O)N(C)[C@@H](C(C)C)C(=O)O[C@@H]2C)c(N)c1=O [7-aminoactinomycin D]
mode of DNA binding, same way as AMD (DNA [1]): by intercalation of the chromophore and concomitant hydrogen and hydrophobic interactions of the peptide lactones

DNA-binding related activity (DNA [2]): no DNA-binding related activity
Tm (ΔTm = Tm of DNA-drug complex minus Tm of DNA) (DNA [3]): 0 °C
Compound: CCN(CC)C(=O)c1c2nc3c(C(=O)N(CC)CC)ccc(C)c3oc-2c(C)c(=O)c1N [Compound 1a, reference compound]

Tm (ΔTm = Tm of DNA-drug complex minus Tm of DNA) (DNA [3]): 0 °C
Compound: CCN(CC)C(=O)c1c2nc3c(C(=O)N(CC)CC)cc(O)c(C)c3oc-2c(C)c(=O)c1N [Compound 2a]

Compound: Cc1c2oc3c(C)c([N+](=O)[O-])cc(C(=O)N[C@@H]4C(=O)N[C@H](C(C)C)C(=O)N5CCC[C@H]5C(=O)N(C)CC(=O)N(C)[C@@H](C(C)C)C(=O)O[C@@H]4C)c3nc-2c(C(=O)N[C@@H]2C(=O)N[C@H](C(C)C)C(=O)N3CCC[C@H]3C(=O)N(C)CC(=O)N(C)[C@@H](C(C)C)C(=O)O[C@@H]2C)c(N)c1=O [Compound 7-nitro-, 7-nitro-]
mode of DNA binding, same way as AMD (DNA [1]): by intercalation of the chromophore and concomitant hydrogen and hydrophobic interactions of the peptide lactones

IC50 ([4]; read-out: ID50 (the source's name)): 9 µg/mL (≈ 17.6 µM)
Tm (ΔTm = Tm of DNA-drug complex minus Tm of DNA) (DNA [3]): 0 °C
Compound: CCN(CC)C(=O)c1c2nc3c(C(=O)N(CC)CC)cc(OCC4CO4)c(C)c3oc-2c(C)c(=O)c1N (stereo not drawn) [Compound 3a]
fold less toxic compared to AMD and its analogues [4]: more than 1000 fold

Compound: Cc1c2oc3c(C)c(O)cc(C(=O)N[C@@H]4C(=O)N[C@H](C(C)C)C(=O)N5CCC[C@H]5C(=O)N(C)CC(=O)N(C)[C@@H](C(C)C)C(=O)O[C@@H]4C)c3nc-2c(C(=O)N[C@@H]2C(=O)N[C@H](C(C)C)C(=O)N3CCC[C@H]3C(=O)N(C)CC(=O)N(C)[C@@H](C(C)C)C(=O)O[C@@H]2C)c(N)c1=O [Compound 2b, 7-hydroxyactinomycin D, reference compound]
IC50 ([4]; final growth medium contained 1% Me2SO, log phase, read-out: ID50 (in vitro growth inhibition, CCRF-CEM)): 0.95 µg/mL (≈ 0.747 µM)
MTD (maximum tolerated dose, lethal for 10% of normal mice; = LD10) (normal CDF1 male mice; four injections ip, qd 1-4): 2.0 milligrams/kilogram
MTD dose as multiple of the MTD dose for AMD (normal CDF1 male mice; q4d 1, 5, 9 schedule): 17 fold
fold less toxic than AMD (normal CDF1 male mice; qd 1-4 schedule): 13 fold
MTD (maximum tolerated dose, lethal for 10% of normal mice; = LD10) (normal CDF1 male mice; [5]): 4.2 milligrams/kilogram
% ILS (percent increase in life span) (P-388 leukemia; 0.15 mg/kg ip): 10%
MST (median survival time) (P-388 leukemia; 0.15 mg/kg ip): 12 days
cure (over 55 day survivors) (P-388 leukemia; 0.15 mg/kg ip): 0/7
% ILS (percent increase in life span) (P-388 leukemia; 0.30 mg/kg ip): 55%
MST (median survival time) (P-388 leukemia; 0.30 mg/kg ip): 17 days
cure (over 55 day survivors) (P-388 leukemia; 0.30 mg/kg ip): 0/7
% ILS (percent increase in life span) (P-388 leukemia; 0.60 mg/kg ip): 89%
MST (median survival time) (P-388 leukemia; 0.60 mg/kg ip): 21 days
cure (over 55 day survivors) (P-388 leukemia; 0.60 mg/kg ip): 0/7
% ILS (percent increase in life span) (P-388 leukemia; 1.20 mg/kg ip): 127%
MST (median survival time) (P-388 leukemia; 1.20 mg/kg ip): 25 days
cure (over 55 day survivors) (P-388 leukemia; 1.20 mg/kg ip): 0/7
% ILS (percent increase in life span) (P-388 leukemia; 1.80 mg/kg ip): 136%
MST (median survival time) (P-388 leukemia; 1.80 mg/kg ip): 26 days
cure (over 55 day survivors) (P-388 leukemia; 1.80 mg/kg ip): 0/7
% ILS (percent increase in life span) (P-388 leukemia; 3.00 mg/kg ip): 37%
MST (median survival time) (P-388 leukemia; 3.00 mg/kg ip): 15 days
cure (over 55 day survivors) (P-388 leukemia; 3.00 mg/kg ip): 0/7
minimal effective dose (P-388 leukemia; four injections ip, qd 1-4): 0.2 mg/kg
minimal effective dose (P-388 leukemia; [5]): 0.275 mg/kg
therapeutic index: MTD/MED (P-388 leukemia; four injections ip, qd 1-4): 10
activity in respect of % ILS, 1b versus 2b (P-388 leukemia; ip, q4d 1, 5, 9): approximately equiactive
dose higher than AMD needed for equiactivity (P-388 leukemia; ip, q4d 1, 5, 9): > 14 fold
therapeutic index: MTD/MED (P-388 leukemia; [5]): 15
Tm (ΔTm = Tm of DNA-drug complex minus Tm of DNA) (DNA [3]): 6.7 ± 0.15 °C
DNA melting profile / ΔTm character of the DNA complex (DNA [3]; thermal denaturation, words): sharp and smooth

Tm (ΔTm = Tm of DNA-drug complex minus Tm of DNA) (DNA [3]): 0 °C
Compound: CCN(CC)C(=O)c1c2nc3c(C(=O)N(CC)CC)cc(OCC(O)CO)c(C)c3oc-2c(C)c(=O)c1N (stereo not drawn) [Compound 4a]
fold less toxic compared to AMD and its analogues [4]: more than 1000 fold

Source: patent US4514330A, “Carbon-7-substituted atinomycin D analogue” (Trustees of Boston University, priority 1983, dated 1985)
